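All cell lines were grown in 96-well plates and treated with compound for 48 hours. GI50 = concentration required for 50% inhibition of growth. Definition used: TGI = concentration required for complete inhibition of growth.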
How the values were obtained:
Experiment in all cases: growth of human tumour cells (NCI), 48 h
[1] = system: COLO 205 colon
[2] = system: A549 NSCLC
[3] = system: OVCAR-5 ovarian
[4] = system: NCI-H226 lung
[5] = system: RPMI-8226 leukemia
[6] = system: SK-MEL-28 melanoma
[7] = system: SF-295 CNS
[8] = system: MDA-MB-435
[9] = system: RXF 393 renal
[10] = system: T-47D breast

Row | SMILES | TGI [1] [µM] | TGI [2] [µM] | TGI [3] [µM] | TGI [4] [µM] | TGI [5] [µM] | TGI [6] [µM] | TGI [7] [µM] | TGI [8] [µM] | TGI [9] [µM] | TGI [10] [µM] | GI50 [1] [µM] | GI50 [2] [µM] | GI50 [3] [µM] | GI50 [4] [µM] | GI50 [9] [µM] | GI50 [6] [µM] | GI50 [10] [µM] | GI50 [7] [µM] | GI50 [8] [µM] | GI50 [5] [µM]
1 | COc1cc([N+](=O)[O-])c(S(=O)(=O)O)cc1-n1nc(C(=O)Nc2ccccc2)n[n+]1-c1cc(S(=O)(=O)[O-])c([N+](=O)[O-])cc1OC | > 100 | > 100 | > 100 | > 100 | > 100 | > 100 | > 100 | > 100 | – | – | – | – | – | – | – | – | – | – | – | –
2 | O=C(CCC(=O)Nc1cccc(C(F)(F)F)c1)CC(=O)c1ccc2ccccc2c1 | > 100 | > 100 | > 100 | > 100 | > 100 | – | > 100 | – | – | – | – | – | – | – | – | – | – | – | – | –
3 | O=C(N/C(=C\c1ccccc1O)c1nc2ccccc2[nH]1)c1ccccc1 | > 100 | > 100 | > 100 | – | > 100 | > 100 | – | – | > 100 | – | – | – | – | – | – | – | – | – | – | –
4 | Oc1ccc(C(O)(c2ccccc2)c2ccccc2)c2ccccc12 | 18.6 | 11.9 | 5.96 | 9.8 | – | 29.9 | 8.19 | 6.01 | > 100 | 24 | – | – | – | – | – | – | – | – | – | –
5 | C=C1C(=O)O[C@H]2[C@H]1CC/C(COC(=O)/C=C\C(=O)NCc1ccc(Cn3c(=O)sn(CCI)c3=O)cc1)=C\CC[C@@]1(C)O[C@@H]21 | 3.69 | 30.5 | 13.3 | 49 | – | 5.04 | 33.4 | 8.68 | 3.69 | 6.83 | 2.06 | 14.8 | 3.56 | 20.9 | 1.81 | 2.23 | 2.58 | 18.9 | 3.04 | –
6 | O=C1C=C2CCCC2C(C(=O)O)(C(=O)O)C1 (stereo not drawn) | > 100 | > 100 | – | – | > 100 | > 100 | > 100 | – | > 100 | – | – | – | – | – | – | – | – | – | – | –
7 | COCCc1n(Cc2ccc3ccccc3c2)c2ccccc2[n+]1Cc1ccc2ccccc2c1 | – | 3.03 | 2.47 | – | – | 1.97 | – | 1.56 | – | – | – | 1.46 | 1.11 | – | – | 0.567 | – | – | 0.41 | –
8 | NCCCNc1nc2ccccc2c2c(=O)c3cccc(Cl)c3sc12 | – | – | 3.04 | – | – | 3.29 | 3.14 | 3.12 | 2.83 | – | – | – | 1.55 | – | 1.47 | 1.81 | – | 1.71 | 1.73 | –
9 | CC(C)COC1Sc2ccccc2S1 | 89.2 | 46.6 | – | – | > 100 | 33.7 | 31.3 | – | 34.6 | – | – | – | – | – | – | – | – | – | – | –
10 | NS(=O)(=O)c1ccc(NC(=O)C2C(=O)C(=O)N(c3ccc(S(N)(=O)=O)cc3)C2=O)cc1 (stereo not drawn) | > 100 | > 100 | > 100 | > 100 | > 100 | > 100 | > 100 | – | > 100 | – | – | – | – | – | – | – | – | – | – | –
11 | CCC(C)C1=C(O)[N+]2([O-])Oc3ccc(C4=C(O)C(=O)C(c5ccc(O)cc5)=C(O)C4=O)cc3OC2(C(C)CC)C(=O)N1O (stereo not drawn) | > 100 | > 100 | > 100 | > 100 | > 100 | > 100 | > 100 | 90.6 | > 100 | – | 12.6 | 9.35 | > 100 | 3.81 | 8.49 | 85.7 | – | 13.9 | 9.77 | 6.74
